US20250263370A1 (Tay Therapeutics Limited, priority 2022, published 2025)
Where “and” joins values, the source holds several entries; their conditions need not be identical. Identical values can stand only once. Entries after “also recorded” stand apart in the source; their conditions may differ.

What was measured:
[1] = tested on: Col1a1, TGF-b1, MCP-1, IL-1b, IL-6, IL-17, TNF-a, and Timp1; assay: Tissue biomarker mRNA by RT-PCR in ligated kidney of UUO rats; type: in vivo, rat
Description: (§1) Serum for blood biochemistry analysis was collected into centrifuge tubes without coagulant four hours after final dosing. Blood plasma samples from group 3 was collected into tubes with K2EDTA four hours after final dosing. At the conclusion of the study (end of the 14-day period), animals were euthanized. Kidney tissue was collected four hours after final dosing. Ligated side kidney was divided into three copies ⅓ fix into 10% formalin for H&E analysis, ⅓ into RNA for PCR analysis of tissue biomarkers Col1a1, TGF-b1, MCP-1, IL-1b, IL-6, IL-17, TNF-a, and Timp1, and ⅓ for hydroxyproline assay analyzed by ELISA. RNA was extracted from tissue using the RNeasy mini kit (Qiagen). RNA concentration was measured using a NanoDrop One Spectrophotometer (ThermoFisher) and converted to cDNA using a High-Capacity RNA-to-cDNA kit (Invitrogen). RT-PCR was performed to measure levels of mRNA of different targets using TaqMan® Gene Expression Master Mix and TaqMan® probe/primer sets on a QuantStudio 6, Real-Time PCR System (ThermoFisher). Fold change in target gene expression was determined using the ΔΔCt method.

[2] = tested on: renal fibrosis; assay: Unilateral Urethral Obstruction (UUO) renal fibrosis model in rats: body weight, clinical observations, histopathology scores, serum urea, hydroxyproline; type: in vivo, rat; parameters: Glomerulosclerosis score / Interstitial nephritis score / Collagen fiber deposition score / Nephropathy score / Total score: scale not given here; conditions: for Clinical Observation: — = no observation
Description: Unilateral Urethral Obstruction (UUO) is a complex model of renal fibrosis (RF) disease. RF is a common outcome in progressive chronic kidney diseases, characterized by excessive formation of internal scar tissue. Surgical obstruction of urine flow can be used to trigger this disease in rodents. The UUO model allows for evaluation of potential drugs as treatment for RF.
Experimental groups for the study are outlined in Table 10. […] Briefly, animals were anesthetized using a Zoletil/Xylazine mixture (20:1, v:v) for a final dose of 25 mg/kg. The operation area was disinfected with 75% alcohol before shaving. Rats in UUO group were exposed left ureter through a small incision on the left side of the abdomen and ligated with 3-0 silk at two locations about 0.5 cm below the renal hilum. The ureters of sham rats in Group 1 were manipulated but not ligated.
Starting on Day 0, animals in group 2 were administered daily doses of the vehicle for 14 days.
Clinical signs for all animals were monitored and recorded daily. Blind clinical nephropathy scores were conducted for all animals in the study. Glomerulosclerosis, interstitial nephritis, collagen fiber deposition, nephropathy were each assessed for all experimental rats, and a total clinical score was determined for each rat. The scoring system represented the degree or percentage of lesions in the whole kidney. Clinical score assessments were performed on Day 14.
as §1

[3] = 30 mg/kg BID for 14 days (group 3)
[4] = Example 101 30 mg/kg, individual animals, histopathology score

SMILES: CNC(=O)c1[nH]c(C(=O)NC2CCC2)cc1O[C@@H](C)c1ccccc1 (stereo in doubt) [Example 101, N^5-cyclobutyl-N^2-methyl-3-(1-phenylethoxy)-1H-pyrrole-2,5-dicarboxamide]
- Col1a1 tissue RNA level relative to UUO + vehicle ([1]; 30 mg/kg BID, kidney): reduced levels
- IL-1b tissue RNA level relative to UUO + vehicle ([1]; 30 mg/kg BID, kidney): reduced levels
- IL-6 tissue RNA level relative to UUO + vehicle ([1]; 30 mg/kg BID, kidney): reduced levels
- MCP-1 tissue RNA level relative to UUO + vehicle ([1]; 30 mg/kg BID, kidney): reduced levels
- TGF-b1 tissue RNA level relative to UUO + vehicle ([1]; 30 mg/kg BID, kidney): reduced levels
- Timp1 tissue RNA level relative to UUO + vehicle ([1]; 30 mg/kg BID, kidney): reduced levels
- expression of IL-17 relative to UUO + vehicle ([1]; 30 mg/kg BID, kidney): limited effect
- expression of TNF-α relative to UUO + vehicle ([1]; 30 mg/kg BID, kidney): limited effect
- Col1a1 RNA level, Normalized Fold Change ([1]; 30 mg/kg, individual animals): 0.67 and 0.33 and 0.21 and 0.55 and 0.28 and 0.41 and 0.86 and 0.69
- IL-1b RNA level, Normalized Fold Change ([1]; 30 mg/kg, individual animals): 0.43 and 0.18 and 0.29 and 0.69 and 0.55 and 0.27 and 0.56 and 0.67
- IL-6 RNA level, Normalized Fold Change ([1]; 30 mg/kg, individual animals): 0.06 and 0.05 and 0.03 and 0.33 and 0.12 (2×) and 0.26 and 0.07
- IL-17 RNA level, Normalized Fold Change ([1]; 30 mg/kg, individual animals): 0.79 and 0.22 and 0.24 and 2.09 and 1.81 and 0.54 and 0.70 and 0.94
- MCP-1 RNA level, Normalized Fold Change ([1]; 30 mg/kg, individual animals): 0.34 and 0.26 and 0.32 and 0.53 and 0.42 and 0.27 and 0.68 and 0.61
- TGF-b1 RNA level, Normalized Fold Change ([1]; 30 mg/kg, individual animals): 0.63 and 0.44 and 0.35 and 0.81 and 0.52 and 0.50 and 0.90 and 0.85
- TNF-a RNA level, Normalized Fold Change ([1]; 30 mg/kg, individual animals): 0.90 and 0.48 and 0.32 and 1.53 and 1.00 and 0.69 and 0.94 and 1.55
- Timp1 RNA level, Normalized Fold Change ([1]; 30 mg/kg, individual animals): 0.65 and 0.41 and 0.44 and 0.71 and 0.54 and 0.56 and 0.94 and 0.97
- Col1a1 RNA level, Normalized Fold Change (Mean + SEM) ([1]; group mean, N 8): 0.50
- IL-1b RNA level, Normalized Fold Change (Mean + SEM) ([1]; group mean, N 8): 0.46
- IL-6 RNA level, Normalized Fold Change (Mean + SEM) ([1]; group mean, N 8): 0.13
- IL-17 RNA level, Normalized Fold Change (Mean + SEM) ([1]; group mean, N 8): 0.92
- MCP-1 RNA level, Normalized Fold Change (Mean + SEM) ([1]; group mean, N 8): 0.43
- TGF-b1 RNA level, Normalized Fold Change (Mean + SEM) ([1]; group mean, N 8): 0.63
- TNF-a RNA level, Normalized Fold Change (Mean + SEM) ([1]; group mean, N 8): 0.93
- Timp1 RNA level, Normalized Fold Change (Mean + SEM) ([1]; group mean, N 8): 0.65
- overall effect in UUO / renal fibrosis ([2]; 30 mg/kg): ameliorates clinical symptoms associated with UUO; also recorded: surprisingly effective against renal fibrosis and renal fibrosis-related conditions
- animals that exhibited diarrhea in addition to soft stools [2, 3]: One animal
- animals that exhibited dirty anuses [2, 3]: Three animals
- body weight over the 14-day study [2, 3]: slight weight loss over the first seven days of the study, and then gained weight over the remaining seven days
- rats that exhibited soft stools during the study [2, 3]: Four
- level of collagen fiber deposition relative to UUO + vehicle ([2]; 30 mg/kg BID, Day 14): reduced
- level of interstitial nephritis relative to UUO + vehicle ([2]; 30 mg/kg BID, Day 14): reduced
- level of nephropathy relative to UUO + vehicle ([2]; 30 mg/kg BID, Day 14): reduced
- pathology staining of kidney (FIG. 13B) ([2]; 30 mg/kg BID, Day 14): mild interstitial nephritis with neutrophil and lymphocyte infiltration, degeneration and necrosis of renal tubular epithelial cells, and high tubular dilatation
- total clinical scores relative to UUO + vehicle ([2]; 30 mg/kg BID, Day 14): reduced
- serum urea levels between the three experimental groups ([2]; 30 mg/kg BID, four hours after final dosing): No significant differences
- hydroxyproline levels between the three experimental groups ([2]; 30 mg/kg BID, kidney tissue): No significant differences
- Body weight ([2]; 30 mg/kg, Day 0, individual animals): 324 g and 307 g and 295 g and 302 g and 285 g and 297 g and 294 g and 306 g
- Body weight ([2]; 30 mg/kg, Day 1, individual animals): 293 g and 284 g (2×) and 277 g (2×) and 279 g and 276 g and 302 g
- Body weight ([2]; 30 mg/kg, Day 2, individual animals): 299 g (2×) and 274 g (3×) and 275 g and 273 g and 303 g
- Body weight ([2]; 30 mg/kg, Day 3, individual animals): 306 g and 266 g and 267 g and 274 g (2×) and 278 g and 304 g and 305 g
- Body weight ([2]; 30 mg/kg, Day 4, individual animals): 315 g and 259 g and 262 g and 276 g and 283 g and 277 g and 309 g and 312 g
- Body weight ([2]; 30 mg/kg, Day 5, individual animals): 310 g and 263 g and 254 g and 282 g and 284 g and 279 g and 302 g and 315 g
- Body weight ([2]; 30 mg/kg, Day 6, individual animals): 323 g and 265 g and 258 g and 286 g and 285 g and 284 g and 304 g and 321 g
- Body weight ([2]; 30 mg/kg, Day 7, individual animals): 322 g and 270 g and 258 g and 297 g and 289 g and 287 g and 307 g and 324 g
- Body weight ([2]; 30 mg/kg, Day 8, individual animals): 322 g and 271 g and 260 g and 296 g
- Body weight ([2]; 30 mg/kg, Day 9, individual animals): 331 g and 276 g and 264 g and 303 g
- Body weight ([2]; 30 mg/kg, Day 10, individual animals): 330 g and 277 g and 261 g and 311 g
- Body weight ([2]; 30 mg/kg, Day 11, individual animals): 327 g and 275 g and 265 g and 297 g
- Body weight ([2]; 30 mg/kg, Day 12, individual animals): 318 g and 285 g and 260 g and 291 g
- Body weight ([2]; 30 mg/kg, Day 13, individual animals): 328 g and 283 g and 276 g and 304 g
- Body weight ([2]; 30 mg/kg, Day 14, individual animals): 334 g and 286 g and 271 g and 313 g
- Body weight ([2]; 30 mg/kg, Day −1, individual animals): 306 g and 287 g and 299 g and 295 g and 281 g and 285 g and 296 g and 301 g
- Serum Urea Mean ± SD ([2]; 30 mg/kg, group mean): 5.85 ± 0.69 mmol/L
- Serum Urea ([2]; 30 mg/kg, individual animals): 4.95 mmol/L and 6.04 mmol/L and 6.62 mmol/L and 5.01 mmol/L and 5.28 mmol/L and 6.26 mmol/L and 5.90 mmol/L and 6.70 mmol/L
- Collagen fiber deposition score [2, 4]: 2 (2×) and 1 (6×)
- Glomerulosclerosis score [2, 4]: 0
- Interstitial nephritis score [2, 4]: 3 (5×) and 2 (3×)
- Nephropathy score [2, 4]: 2 (2×) and 1 (6×)
- Total score ([2]; Example 101 30 mg/kg, individual animals, sum of histopathology scores): 7 (2×) and 5 (3×) and 4 (3×)
- Body weight, Mean ± SD ([2]; group 3, Day 0, group mean): 301 g
- Body weight, Mean ± SD ([2]; group 3, Day 1, group mean): 284 g
- Body weight, Mean ± SD ([2]; group 3, Day 2, group mean): 284 g
- Body weight, Mean ± SD ([2]; group 3, Day 3, group mean): 284 g
- Clinical Observation ([2]; group 3, Day 3, individual animals): diarrhea
- Body weight, Mean ± SD ([2]; group 3, Day 4, group mean): 287 g
- Body weight, Mean ± SD ([2]; group 3, Day 5, group mean): 286 g
- Clinical Observation ([2]; group 3, Day 5, individual animals): Anal
- Body weight, Mean ± SD ([2]; group 3, Day 6, group mean): 291 g
- Clinical Observation ([2]; group 3, Day 6, individual animals): Anal
- Body weight, Mean ± SD ([2]; group 3, Day 7, group mean): 294 g
- Clinical Observation ([2]; group 3, Day 7, individual animals): Anal
- Body weight, Mean ± SD ([2]; group 3, Day 8, group mean): 296 g
- Clinical Observation ([2]; group 3, Day 8, individual animals): soft
- Body weight, Mean ± SD ([2]; group 3, Day 9, group mean): 300 g
- Clinical Observation ([2]; group 3, Day 9, individual animals): soft
- Body weight, Mean ± SD ([2]; group 3, Day 10, group mean): 303 g
- Clinical Observation ([2]; group 3, Day 10, individual animals): soft
- Body weight, Mean ± SD ([2]; group 3, Day 11, group mean): 306 g
- Body weight, Mean ± SD ([2]; group 3, Day 12, group mean): 304 g
- Body weight, Mean ± SD ([2]; group 3, Day 13, group mean): 312 g
- Clinical Observation ([2]; group 3, Day 13, individual animals): soft
- Body weight, Mean ± SD ([2]; group 3, Day 14, group mean): 314 g
- Clinical Observation ([2]; group 3, Day 14, individual animals): Anal (2×) and soft
- Body weight, Mean ± SD ([2]; group 3, Day −1, group mean): 294 g
- Final Hydroxyproline Con., Mean ([2]; group mean): 0.65 μg/mg tissue
- Final Hydroxyproline Con. ([2]; individual animals): 0.72 μg/mg tissue (2×) and 0.69 μg/mg tissue and 0.64 μg/mg tissue and 0.60 μg/mg tissue and 0.66 μg/mg tissue and 0.58 μg/mg tissue and 0.55 μg/mg tissue
